The source of these data is patent US6780883B2, “Amide inhibitors of microsomal triglyceride transfer protein” (Warner-Lambert Company, priority 1998, dated 2004).

Broadly, the pIC50 is −log10 of the IC50, conventionally taken in molar units.

pIC50: −log10 of the molar value.

Assay [1] has as its target apolipoprotein(a), [apo(a)], apolipoproteinB-100, [apoB-100], coupling reaction that generates Lp(a) (Homo sapiens, UniProt P04114+P08519). In words: LPABC screen: lipoprotein(a) biochemical coupling assay, Lp(a) content by ELISA. The conditions noted are these: recombinant apo(a) 17-kringle (293 cell media) + HepG2 conditioned media, 67 minutes, 37° C., 0.3 to 50 μM compound; read-out: Lp ABC IC50. As to the method: LPABC Screen The lipoprotein(a), [Lp(a)], biochemical coupling assay (LPABC) is used to characterize inhibitors of the apolipoprotein(a), [apo(a)], apolipoproteinB-100, [apoB-100], coupling reaction that generates Lp(a). Conditioned media from 293 cells (ATCC CRL-1573), permanently transfected with an apo(a) 17-kringle cDNA expression construct (pcDNA-AMP, In Vitrogen, Carlsbad, Calif.) using standard molecular biology techniques, was used as a source of recombinant apo(a) is diluted 1:3 with phosphate buffered saline (PBS) and 90 μL is pipetted into each well of a 96-well plate and placed into a 37° C. incubator for 10 minutes. Twenty microliters of a 0.3 to 50 μM solution of a compound of the present invention in PBS is added to the warmed plate. Ninety microliters of HepG2 (ATCC HB-8065) cell conditioned media diluted 1:3 with PBS is added to the apo(a)/compound mixture and mixed by pipetting up and down 5 times. The reaction is incubated for 67 minutes in a 37° C. incubator. A 100 μL aliquot of the reaction is removed and assayed for its Lp(a) content by an enzyme linked immunosorbent assay (ELISA).
Background: ELISA stands for enzyme-linked immunosorbent assay.

In assay [2] the test system is Lp(a) production in HepG2^K17 cells. The assay can be described thus: LPA3 screen: inhibition of Lp(a) production in transfected HepG2 cells, Lp(a) in media by ELISA. The assay is classed as cell-based. To be noted: Homo sapiens, 8 hours, 0.3 to 50 μM compound, Lp(a) normalized for total protein, read-out: Lp A3 IC50. As for the experimental part:
The LPA3 screen is used to identify compounds that inhibit Lp(a) production. This screen employs permanently transfected HepG2 cells (HepG2^K17) that are generated using an apo(a) 17-kringle cDNA expression construct (pcDNA-AMP, In Vitrogen, Carlsbad, Calif.) in accordance with methods that are well-known in molecular biology.
HepG2^K17 cells are seeded in 96-well plates at a density of 75,000 cells per well in 0.25 mL of Dulbecco's Modified Eagle Media (DMEM) containing 10% fetal bovine serum (FBS). Seeded plates are incubated overnight in a 37° C., 5% CO2/95% 02 incubator. The media is removed, replaced with (1) fresh media, or (2) fresh media plus 0.3 to 50 μM of a compound of the present invention in 20 μL of PBS, and the plates returned to the incubator for 8 hours. After the additional 8 hours of incubation, Lp(a) is assayed in the media by ELISA. Cells are digested with 0.5N NaOH overnight and assayed for total protein. Lp(a) values are normalized for total protein content.

With `O=C(c1ccccc1Br)N(Cc1ccccc1-c1ccccc1)c1ccncc1` [Example 121, N-Biphenyl-2-ylmethyl-2-bromo-N-pyridin-4-yl-benzamide], the negative logarithm of the IC50 (pIC50) was below 4.30 in assay [1] and 5.42 in assay [2].

Turning to `COc1ccccc1N(Cc1ccc(Cl)c(Cl)c1)C(=O)c1ccccc1` [Example 50, N-(3,4-Dichloro-benzyl)-N-(2-methoxy-phenyl)-benzamide], the pIC50 in assay [1] is below 4.30; in assay [2], 4.82.

Regarding `CCN(CC)CCCc1ccc(N(Cc2ccccc2-c2ccccc2)C(=O)c2ccccc2)cc1` [Example 58, N-Biphenyl-2-ylmethyl-N-[4-(3-diethylamino-propyl)-phenyl]-benzamide], the pIC50 in assay [1] was below 4.30; in assay [2] it was 4.94.

As to `COc1ccc(N(Cc2ccccc2-c2ccccc2)C(=O)c2ccccc2[S+]([O-])C(C)C)cc1` (stereo not drawn) [Example 139, N-Biphenyl-2-ylmethyl-N-(4-methoxy-phenyl)-2-(propane-2-sulfinyl)-benzamide], the pIC50 is below 4.82 in assay [1] and 5.46 in assay [2].

As for `CCCSc1ccccc1C(=O)N(Cc1ccccc1-c1ccccc1)c1cccc(OC)c1` [Example 128, N-Biphenyl-2-ylmethyl-N-(3-methoxy-phenyl)-2-propylsulfanyl-benzamide], the pIC50 in assay [1] is below 4.30; in assay [2], 4.33.

As for `COc1ccc(C(=O)N(Cc2ccc(C(C)(C)C)cc2)c2ccccc2)cc1OC` [Example 48, N-(4-tert-Butyl-benzyl)-3,4-dimethoxy-N-phenyl-benzamide], the pIC50 is below 4.30 in assay [1] and 4.51 in assay [2].

Regarding `COc1cccc(N(Cc2ccccc2-c2ccccc2)C(=O)c2ccccc2SCc2ccccc2)c1` [Example 131, 2-Benzylsulfanyl-N-biphenyl-2-ylmethyl-N-(3-methoxy-phenyl)-benzamide], the pIC50 in assay [1] is below 4.30; in assay [2], 4.40.

As for `CCOc1ccccc1C(=O)N(Cc1ccc2ccccc2c1)c1cccnc1` [Example 79, 2-Ethoxy-N-naphthalen-2-ylmethyl-N-pyridin-3-yl-benzamide], the pIC50 was below 4.30 in assay [1] and 4.77 in assay [2].

Take `O=C(c1cccc2c1OCO2)N(Cc1cccnc1)Cc1ccccc1-c1ccccc1` [Example 97, Benzo[1,3]dioxole-4-carboxylic acid biphenyl-2-ylmethyl-pyridin-3-ylmethyl-amide]: the pIC50 was below 4.30 in assay [1] and 5.11 in assay [2].

For `COc1ccc(C(=O)N(Cc2ccc3ccccc3c2)c2ccccc2)cc1OC` [Example 47, 3,4-Dimethoxy-N-naphthalen-2-ylmethyl-N-phenyl-benzamide], the pIC50 in assay [1] is below 4.30; in assay [2], 4.76.

Regarding `COc1ccc(C(=O)N(Cc2cc(C(C)(C)C)cc(C(C)(C)C)c2)c2ccccc2)cc1OC` [Example 41, N-(3,5-Di-tert-butyl-benzyl)-3,4-dimethoxy-N-phenyl-benzamide], the pIC50 in assay [1] is below 4.30; in assay [2], 4.31.

With `COc1ccc(CN(C(=O)c2ccccc2)c2ccccc2OC)cc1` [Example 86, N-(4-Methoxy-benzyl)-N-(2-methoxy-phenyl)-benzamide], the negative logarithm of the IC50 (pIC50) in assay [1] was below 4.30; in assay [2] it was 4.52.

With `O=C(c1ccccc1[N+](=O)[O-])N(Cc1cccnc1)Cc1ccccc1-c1ccccc1` [Example 100, N-Biphenyl-2-ylmethyl-2-nitro-N-pyridin-3-ylmethyl-benzamide], the pIC50 in assay [1] is below 4.30; in assay [2] it was 4.34.

Take `CCN(CC)CCCc1ccc(N(Cc2cc(C(F)(F)F)cc(C(F)(F)F)c2)C(=O)c2ccccc2)cc1` [Example 52, N-(3,5-Bis-trifluoromethyl-benzyl)-N-[4-(3-diethylamino-propyl)-phenyl]-benzamide]: the negative logarithm of the IC50 (pIC50) in assay [1] was below 4.30; in assay [2], 4.92.

Regarding `CCOc1ccccc1C(=O)N(Cc1cccc(OC)c1)c1cccnc1` [Example 77, 2-Ethoxy-N-(3-methoxy-benzyl)-N-pyridin-3-yl-benzamide], the values for the pIC50 in assay [1] and in assay [2] were below 4.30 and 4.35, respectively.
